From patent US20050004007A1, “Promotion of adoptosis in cancer cells by co-administration of cyclin dependent kinase inhibitiors and cellular differentiation agents” (priority 2000, published 2005) come the findings set out here.

Molecules are shown by their SMILES.

For one experiment, the system named is pRb. Nature of the experiment: Western analysis of underphosphorylated pRb in U937 cells. Type of experiment: cell-based, human. Particulars: for levels of underphosphorylated pRb: FP 100 nM, SB 1 mM, 12 or 24 hr. The protocol: (§1) Western analysis. Equal quantities of protein (15 μg/condition for MAPK, 40 μg/condition for cytochrome c, or 25 μg/condition) were separated by SDS-PAGE [underphosporylated pRB (7.5%), poly(ADP-ribose)polymerase or PARP (8.0%), p44/p42 MAPK (10%), p21, p27, procaspase 3 (12%), and cytochrome c (15%)] and electroblotted onto nitrocellulose. Western analysis of p44/p42 MAPK protein was performed according to the manufacturer's instructions (New England Biolabs); otherwise, studies were performed as previously described [Wang et al, 1998]. Briefly, U937 cells (5×10^6) were pelleted by centrifugation, resuspended in 50 μl PBS, lysed by the addition of 2× Laemmli buffer and boiled for 5 min. Proteins were quantified with Coomassie protein assay reagent. Blots were blocked in PBS-T/5% milk, washed twice with PBS-T, and incubated overnight at 4° C. with the appropriate primary antibody. The blots were washed with PBS-T and incubated with a horseradish-peroxidase conjugated secondary antibody diluted appropriately in PBS-T/5% mill. Following incubation, blots were developed by enhanced chemiluminescence exposure to Kodak X-OMAT film (Eastman Kodak Co., Rochester, N.Y.) and reprobed with antibodies directed against actin to control for equal loading of protein.
(§2) Alternatively, whole cell-pellets were washed twice in PBS, resuspended in PBS, and lysed by the addition of I volume of loading buffer. Lysates were boiled for 10 min, centrifuged at 12,800 g for 5 min and quantified using Coomassie protein assay reagent (Pierce, Rockfold, Ill.). 25 μg of total proteins per point were separated by SDS-PAGE and electro-blotted to nitrocellulose. The blots were blocked in 5% non-fat milk in PBS-T and probed for 1 h with the appropriate dilution of primary antibody. Blots were washed 3×10 min in PBS-T and then incubated with a 1:2000 dilution of peroxidase-conjugated secondary antibody for 1 h at room temperature. Blots were again washed 3×10 min in PBS-T and then developed by enhanced chemiluminesence. Where indicated, blots were stripped and re-probed with antibodies directed against actin.
Primary antibodies for both p21^WAF1/CIP1 and p27^KIP1 (Transduction Laboratories, Lexington, Ky.) were used in a 1:1000 dilution; PARP (1:1000; Oncogene Research Products, Cambridge, Mass.); pro-caspase 3 (1:1000; Transduction Laboratories); cytochrome c (1:2000; Pharmingen); bcl-2 (1:2000; DAKO, Denmark); bax (1:1000; Santa Cruz Biotechnology, Inc., Santa Cruz, Calif.); bid (1:1000; Cell Signaling, Beverly, Mass.); XIAP (1:1000; Cell Signaling); Mcl-1 (1:1000; Pharmingen); bak (1:1000; Calbiochem); c-Myc (1:1000; Pharmingen, San Diego, Calif.); actin (1:2000; Sigma Chemicals, St. Louis, Mo.); cyclins-D1, -A and -E (1:1000; Pharmingen); pRb, underP-pRb, pRb-CDK2 and pRb-CDK4 (all 1:1000; Pharmingen); Ac-H3 and Ac-H4 (both 1:1000; Upstate Biotechnology, Lake Placid, N.Y.); E2F-1 (Upstate Biotechnology). Secondary antibodies conjugated to horseradish peroxidase were obtained from Kirkegaard and Perry Laboratories, Inc. (Gaithersburg, Md.). Coomassie protein assay reagent was purchased from Pierce (Rockford, Ill.), and an enhanced chemiluminescence kit was obtained from New England Nuclear (Boston, Mass.). The pan-caspase inhibitor BOC-D-fmk and the caspase 8 inhibitor Z-IETD-fmk were purchased from Enzyme System Products (Livermore, Calif.) All other chemicals or reagents were purchased from Sigma.

A further experiment deals with XIAP. Nature of the experiment: Western analysis of XIAP in U937 cells. The experiment is classed as cell-based, human. Particulars: FP 100 nM, SB 1 mM. The protocol: as §2, with “actin. […]” for “actin.”
The test system of another experiment is cdk2 and cdk4. Put plainly: Western analysis of cdk2/4-phosphorylated pRb in U937 cells. Particulars: FP 100 nM, SB 1 mM. Type of experiment: cell-based, human. The protocol: as §2, with “actin. […]” for “actin.”
In experiment [1] the test system is HL-60 human promyelocytic leukemia cells. Put plainly: morphological assessment of apoptosis. Type of experiment: cell-based. To be noted: 3, 5, or 10 μM ATRA, 80 nM FP. An excerpt: Cell culture. The myelomonocytic leukemia cell line U937 was derived from a patient with histiocytic lymphoma and was obtained from American Type Culture Collection. The HL-60 cell line was derived from a patient with acute promyelocytic leukemia as previously described [Grant et al. 1992]. U937 and HL-60 cells were maintained in logarithmic growth phase by culturing in suspension in phenol red-free RPMI-1640 (Life Technologies, Inc., Grand Island, N.Y.) and 10% (v/v) fetal calf serum (Hyclone, Logan, Utah), in a humidified atmosphere (95% air/5% CO2) at 37° C. To obtain antisense-expressing cell lines, U937 cells were transfected by electroporation with a pREP4 vector (Invitrogen; Carlsbad, Calif.) or the pREP4 vector containing the p21^WAF1/CIP1 coding region in an antisense orientation as previously described [Wang et al. 1999]. […]
Morphological assessment of apoptosis. U937 cells were evaluated for apoptosis by morphological assessment of Wright and Giemsa-stained cytospin preparations. At designated times, cells were transferred to slides by cytocentrifugation, fixed, stained, and evaluated under light microscopy for treatment-induced apoptosis. […] Five or more randomly selected fields, encompassing a total≧500 cells/slide, were evaluated to determine the percentage of apoptotic cells for each treatment condition.

The test system of a further experiment is p27KIP1. Put plainly: Western analysis of p27KIP1 expression in U937 cells. Type of experiment: cell-based, human. To be noted: 10 nM PMA, FP 50-100 nM, 24 h. As to the method:
as §1, with “Following incubation, blots were developed by enhanced chemiluminescence exposure to Kodak X-OMAT film (Eastman Kodak Co., Rochester, N.Y.) and reprobed with antibodies directed against actin to control for equal loading of protein.” left out
Alternatively, whole cell-pellets were washed twice in PBS, resuspended in PBS, and lysed by the addition of I volume of loading buffer. Lysates were boiled for 10 min, centrifuged at 12,800 g for 5 min and quantified using Coomassie protein assay reagent (Pierce, Rockfold, Ill.). […]

Experiment [2] relates to HL60 human leukemia cells. Put plainly: loss of mitochondrial membrane potential (DiOC6 uptake). The experiment is classed as cell-based. Particulars: 3, 5, or 10 μM ATRA and 80 nM FP. The protocol: Assessment of mitochondrial membrane potential. At designated times, 1 ml aliquots of cells (2×10^5) were harvested and incubated with 40 nM DiOC6 for 15 minutes at 25° C. as previously described [Zamzami et al 1995]or at 37° C. Samples were analyzed using a Becton Dickinson FACScan flow cytometer (excitation λ=488 nm; emission λ=525 nm). […] Data acquisition and analysis was performed using […] Software (Becton Dickinson, Mansfield, Mass.).

The subject of experiment [3] is U937 myelomonocytic human leukemia cells. Put plainly: percent cell death. Type of experiment: cell-based. Particulars: 1 μM SAHA, 100 nM FP, 24 hours after administration.
Another experiment has as its system ERK1/2. Put plainly: Western analysis of phosphorylated p44/p42 MAPK in U937 cells. Type of experiment: cell-based, human. To be noted: 10 nM PMA, 100 nM FP, 30 min-6 h. The protocol: as §1

Consider `CN1CC[C@H](c2c(O)cc(O)c3c(=O)cc(-c4ccccc4Cl)oc23)[C@H](O)C1` [FP, Flavopiridol], for which the “full-length underphosphorylated pRb” value with pRb (10 nM PMA, FP 50, 80 or 100 nM, 24 h) was “minimal effect”. In addition, in the experiment on pRb, the “levels of underphosphorylated pRb” value is listed as “did not affect”. Further, the “levels of XIAP” value with XIAP is “modest decreases”. Moreover, the “cdk2/4 activities (cdk2/4-phosphorylated pRb)” value in the experiment on cdk2 and cdk4 is “moderate inhibition”. Also, in experiment [1], the “% apoptosis” value is reported as “minimal effect”. For the same molecule, the p27KIP1 expression result with p27KIP1 is on record as “no effect”. Moreover, the “loss of mitochondrial membrane potential (Δψm)” value in experiment [2] was “no effect”. Besides, the cell death result in experiment [3] was “modest level of cell death”. Also, the “phosphorylation (activation) of ERK1/2” value in the experiment with ERK1/2 was “modestly increased ERK activation”.

`CCCC(=O)[O-].[Na+]` [SB, sodium butyrate]: the “levels of underphosphorylated pRb” value with pRb is listed as “substantial increase”.
